From patent US11168073B2, “3,3-difluoroallylamines or salts thereof and pharmaceutical compositions comprising the same” (YUHAN CORPORATION, priority 2018, dated 2021)
Counter-ions that a name gives are not always drawn.

Assays:
Assay type in all cases: biochemical
recombinant human VAP-1 = molecular target: T1, recombinant human VAP-1 (Homo sapiens, UniProt Q16853); test: Activity evaluation on recombinant human VAP-1 (Amplex Red/HRP-coupled hydrogen peroxide assay, benzylamine substrate); conditions: recombinant human VAP-1; 30 min preincubation at 37° C.; 1 mM benzylamine; read-out: Inhibitory Activity (IC50, nM) human VAP-1
T1 construct: purchased R&D systems
T1 sequence (Q16853 1-763): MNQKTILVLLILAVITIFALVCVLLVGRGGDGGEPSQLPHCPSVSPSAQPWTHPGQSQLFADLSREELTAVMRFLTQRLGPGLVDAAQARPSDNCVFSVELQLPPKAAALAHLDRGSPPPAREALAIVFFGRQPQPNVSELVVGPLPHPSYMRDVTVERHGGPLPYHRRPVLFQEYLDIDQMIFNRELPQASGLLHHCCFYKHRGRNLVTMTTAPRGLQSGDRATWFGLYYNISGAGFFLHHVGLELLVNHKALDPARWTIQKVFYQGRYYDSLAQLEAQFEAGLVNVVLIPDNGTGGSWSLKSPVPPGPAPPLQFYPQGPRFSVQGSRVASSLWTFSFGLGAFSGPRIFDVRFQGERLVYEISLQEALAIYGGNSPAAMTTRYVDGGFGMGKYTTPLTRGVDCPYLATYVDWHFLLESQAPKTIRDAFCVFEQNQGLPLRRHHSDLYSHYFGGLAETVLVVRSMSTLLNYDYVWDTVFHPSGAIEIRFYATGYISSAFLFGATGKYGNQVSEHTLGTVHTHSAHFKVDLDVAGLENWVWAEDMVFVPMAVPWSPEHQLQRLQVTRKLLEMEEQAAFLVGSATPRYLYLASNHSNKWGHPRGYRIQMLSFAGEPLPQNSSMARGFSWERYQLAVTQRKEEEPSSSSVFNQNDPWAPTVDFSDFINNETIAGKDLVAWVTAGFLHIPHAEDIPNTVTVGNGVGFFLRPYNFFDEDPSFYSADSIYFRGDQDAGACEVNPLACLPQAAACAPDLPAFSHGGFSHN
Method in brief: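 Recombinant human VAP-1 in 50 mM sodium phosphate pH 7.4 preincubated 30 min at 37 °C with compound (8-point 1:3 series, <1% DMSO), then 1 mM benzylamine, 200 uM Amplex Red, 1 U/mL HRP added. H2O2-derived resorufin fluorescence (ex 544/em 590) followed 1–2 h; IC50 from four-parameter fit of rate inhibition.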

[1] = molecular target: T2, recombinant human MAO-A (monoamine oxidase-A) (Homo sapiens, UniProt P21397); test: Activity evaluation on recombinant human MAO-A (Amplex Red/HRP-coupled assay, 0.5 mM tyramine substrate); conditions: 0.5 mM tyramine, read-out: Inhibitory Activity (IC50, nM) MAO-A
T2 construct: purchased Sigma-Aldrich
T2 sequence (P21397 1-527): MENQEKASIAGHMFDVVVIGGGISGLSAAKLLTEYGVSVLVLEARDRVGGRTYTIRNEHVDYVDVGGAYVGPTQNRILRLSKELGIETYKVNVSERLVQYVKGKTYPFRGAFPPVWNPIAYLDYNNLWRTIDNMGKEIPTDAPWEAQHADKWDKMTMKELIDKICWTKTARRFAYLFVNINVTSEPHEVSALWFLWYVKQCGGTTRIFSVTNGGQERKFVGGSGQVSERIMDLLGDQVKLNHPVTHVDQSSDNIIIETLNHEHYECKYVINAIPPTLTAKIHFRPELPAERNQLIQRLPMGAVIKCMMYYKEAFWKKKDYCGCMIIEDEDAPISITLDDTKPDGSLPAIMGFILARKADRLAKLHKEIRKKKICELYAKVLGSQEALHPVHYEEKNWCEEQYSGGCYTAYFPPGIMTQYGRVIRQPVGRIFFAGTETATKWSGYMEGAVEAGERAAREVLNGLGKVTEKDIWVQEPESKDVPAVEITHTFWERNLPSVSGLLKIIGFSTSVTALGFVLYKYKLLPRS
Method in brief: (§1)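 Enzyme was preincubated with compounds (8-point 1:3 series, final DMSO <1%) 30 min at 37 °C in 50 mM sodium phosphate pH 7.4, then given 200 uM Amplex Red and 1 U/mL HRP with substrate. H2O2-derived resorufin fluorescence (ex 544/em 590 nm) was followed over 1–2 h; IC50 came from 4-parameter logistic fits of signal-rate inhibition versus DMSO control.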

[2] = molecular target: T3, recombinant human MAO-B (monoamine oxidase-B) (Homo sapiens, UniProt P27338); test: Activity evaluation on recombinant human MAO-B (Amplex Red/HRP-coupled assay, 1 mM benzylamine substrate); conditions: 1 mM benzylamine, read-out: Inhibitory Activity (IC50, nM) MAO-B
T3 construct: purchased Sigma-Aldrich
T3 sequence (P27338 1-520): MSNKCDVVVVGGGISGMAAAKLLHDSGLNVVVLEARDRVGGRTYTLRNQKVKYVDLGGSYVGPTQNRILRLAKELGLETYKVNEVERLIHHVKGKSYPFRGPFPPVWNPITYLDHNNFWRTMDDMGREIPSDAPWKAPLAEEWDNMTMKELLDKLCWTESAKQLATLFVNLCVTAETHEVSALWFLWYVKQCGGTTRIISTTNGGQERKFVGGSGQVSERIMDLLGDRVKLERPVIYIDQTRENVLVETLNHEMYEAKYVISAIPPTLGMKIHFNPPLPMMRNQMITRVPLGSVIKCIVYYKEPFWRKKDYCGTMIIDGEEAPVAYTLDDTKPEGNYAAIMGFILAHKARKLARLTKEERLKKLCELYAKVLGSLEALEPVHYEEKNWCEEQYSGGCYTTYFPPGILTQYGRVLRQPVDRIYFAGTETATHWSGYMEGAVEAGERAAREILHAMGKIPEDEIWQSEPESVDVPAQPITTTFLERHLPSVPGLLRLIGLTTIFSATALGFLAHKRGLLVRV
Method in brief: as §1

[3] = molecular target: T4, recombinant human DAO (diamine oxidase) (Homo sapiens, UniProt P19801); test: Activity evaluation on recombinant human DAO (Amplex Red/HRP-coupled assay, 1 mM putrescine substrate); conditions: 1 mM putrescine, read-out: Inhibitory Activity (IC50, nM) DAO
T4 construct: purchased R&D systems
T4 sequence (P19801 20-751): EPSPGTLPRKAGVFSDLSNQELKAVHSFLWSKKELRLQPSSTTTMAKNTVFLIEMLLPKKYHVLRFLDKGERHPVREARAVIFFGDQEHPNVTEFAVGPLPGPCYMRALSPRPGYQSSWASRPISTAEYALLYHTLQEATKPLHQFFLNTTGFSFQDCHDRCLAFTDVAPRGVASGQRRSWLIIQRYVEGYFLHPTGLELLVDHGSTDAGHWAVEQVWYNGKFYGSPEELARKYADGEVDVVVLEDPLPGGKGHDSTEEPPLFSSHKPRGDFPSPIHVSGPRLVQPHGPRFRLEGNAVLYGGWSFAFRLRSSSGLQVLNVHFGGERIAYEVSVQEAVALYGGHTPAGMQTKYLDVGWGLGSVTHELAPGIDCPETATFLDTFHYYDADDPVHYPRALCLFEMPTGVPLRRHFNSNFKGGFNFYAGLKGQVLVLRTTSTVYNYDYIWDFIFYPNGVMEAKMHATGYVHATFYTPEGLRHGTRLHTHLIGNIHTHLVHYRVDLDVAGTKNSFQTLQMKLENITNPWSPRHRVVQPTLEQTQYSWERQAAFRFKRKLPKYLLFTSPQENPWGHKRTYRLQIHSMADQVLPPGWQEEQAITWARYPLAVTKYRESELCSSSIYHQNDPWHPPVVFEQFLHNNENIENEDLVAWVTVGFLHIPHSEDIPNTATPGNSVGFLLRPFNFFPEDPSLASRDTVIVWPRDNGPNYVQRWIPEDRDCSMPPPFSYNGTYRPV
Method in brief: as §1

| Structure (SMILES) | IC50 (recombinant human VAP-1) | IC50 [1] | IC50 [2] | IC50 [3] |
| --- | --- | --- | --- | --- |
| NCC(Cn1ncn(Cc2ccc(-c3ccc4nonc4c3)s2)c1=O)=C(F)F [Example 129, 2-[2-(aminomethyl)-3,3-difluoro-allyl]-4-[[5-(2,1,3-benzoxadiazol-5-yl)-2-thienyl]methyl]-1,2,4-triazol-3-one Trifluoroacetate] | 0.7 nM | > 100000 nM | 311 nM | 21000 nM |
| NCC(Cn1ncn(Cc2ccc(-c3cc(F)c4c(c3)CC(=O)N4)s2)c1=O)=C(F)F [Example 130, 5-[5-[[1-[2-(aminomethyl)-3,3-difluoro-allyl]-5-oxo-1,2,4-triazol-4-yl]methyl]-2-thienyl]-7-fluoro-indolin-2-one Trifluoroacetate] | 0.7 nM | > 100000 nM | > 100000 nM | > 100000 nM |
| CC(=O)Nc1nc2ccc(-c3ccc(Cn4cnn(CC(CN)=C(F)F)c4=O)s3)cc2s1 [Example 131, N-[6-[5-[[1-[2-(aminomethyl)-3,3-difluoro-allyl]-5-oxo-1,2,4-triazol-4-yl]methyl]-2-thienyl]-1,3-benzothiazol-2-yl]acetamide trifluoroacetate] | 0.4 nM | 7800 nM | 12000 nM | > 100000 nM |
| NCC(Cn1ncn(Cc2ccc(-c3ccc4c(c3)C(=O)NCC4)s2)c1=O)=C(F)F [Example 132, 7-[5-[[1-[2-(aminomethyl)-3,3-difluoro-allyl]-5-oxo-1,2,4-triazol-4-yl]methyl]-2-thienyl]-3,4-dihydro-2H-isoquinolin-1-one Trifluoroacetate] | 0.2 nM | > 100000 nM | > 100000 nM | > 100000 nM |
| NCC(Cn1ncn(Cc2ccc(-c3ccc4c(c3)CCC(=O)N4)s2)c1=O)=C(F)F [Example 133, 6-[5-[[1-[2-(aminomethyl)-3,3-difluoro-allyl]-5-oxo-1,2,4-triazol-4-yl]methyl]-2-thienyl]-3,4-dihydro-1H-quinolin-2-one Trifluoroacetate] | 0.2 nM | > 100000 nM | > 100000 nM | > 10000 nM |
| Cc1cc(-c2ccc(Cn3cnn(CC(CN)=C(F)F)c3=O)s2)cc2c1NC(=O)CC2 [Example 134, 6-[5-[[1-[2-(aminomethyl)-3,3-difluoro-allyl]-5-oxo-1,2,4-triazol-4-yl]methyl]-2-thienyl]-8-methyl-3,4-dihydro-1H-quinolin-2-one Trifluoroacetate] | 0.3 nM | > 100000 nM | 22000 nM | > 100000 nM |
| Cc1cc(-c2ccc(Cn3cnn(CC(CN)=C(F)F)c3=O)s2)cc2ccc(=O)[nH]c12 [Example 135, 6-[5-[[1-[2-(aminomethyl)-3,3-difluoro-allyl]-5-oxo-1,2,4-triazol-4-yl]methyl]-2-thienyl]-8-methyl-1H-quinolin-2-one Trifluoroacetate] | 0.4 nM | > 100000 nM | > 100000 nM | 79000 nM |
| NCC(Cn1ncn(Cc2ccc(-c3cc(F)c4c(c3)CCC(=O)N4)s2)c1=O)=C(F)F [Example 136, 6-[5-[[1-[2-(aminomethyl)-3,3-difluoro-allyl]-5-oxo-1,2,4-triazol-4-yl]methyl]-2-thienyl]-8-fluoro-3,4-dihydro-1H-quinolin-2-one Trifluoroacetate] | 0.4 nM | > 100000 nM | > 100000 nM | > 100000 nM |
| NCC(Cn1ncn(Cc2ccc(-c3cc(F)c4[nH]c(=O)ccc4c3)s2)c1=O)=C(F)F [Example 137, 6-[5-[[1-[2-(aminomethyl)-3,3-difluoro-allyl]-5-oxo-1,2,4-triazol-4-yl]methyl]-2-thienyl]-8-fluoro-1H-quinolin-2-one Trifluoroacetate] | 0.3 nM | > 100000 nM | > 100000 nM | > 100000 nM |
| CN1C(=O)CCc2cc(-c3ccc(Cn4cnn(CC(CN)=C(F)F)c4=O)s3)ccc21 [Example 138, 6-[5-[[1-[2-(aminomethyl)-3,3-difluoro-allyl]-5-oxo-1,2,4-triazol-4-yl]methyl]-2-thienyl]-1-methyl-3,4-dihydroquinolin-2-one Trifluoroacetate] | 0.1 nM | > 100000 nM | 15000 nM | 13000 nM |
| Cc1c(-c2ccc(Cn3cnn(CC(CN)=C(F)F)c3=O)s2)ccc2c1NCCO2 [Example 139, 2-[2-(aminomethyl)-3,3-difluoro-allyl]-4-[[5-(5-methyl-3,4-dihydro-2H-1,4-benzoxazin-6-yl)-2-thienyl]methyl]-1,2,4-triazol-3-one Trifluoroacetate] | 1 nM | 21000 nM | 21000 nM | 73000 nM |
| CN1CCOc2cc(-c3ccc(Cn4cnn(CC(CN)=C(F)F)c4=O)s3)ccc21 [Example 140, 2-[2-(aminomethyl)-3,3-difluoro-allyl]-4-[[5-(4-methyl-2,3-dihydro-1,4-benzoxazin-7-yl)-2-thienyl]methyl]-1,2,4-triazol-3-one Trifluoroacetate] | 0.8 nM | 6600 nM | 8000 nM | 6800 nM |
| NCC(Cn1ncn(Cc2ccc(-c3ccc4c(c3)NC(=O)CO4)s2)c1=O)=C(F)F [Example 141, 6-[5-[[1-[2-(aminomethyl)-3,3-difluoro-allyl]-5-oxo-1,2,4-triazol-4-yl]methyl]-2-thienyl]-4H-1,4-benzoxazin-3-one Trifluoroacetate] | 0.6 nM | 8100 nM | 20000 nM | 16000 nM |
